Data reported in patent publication US6737383B1, “Herbicidal oxadiazolidines” (priority 1999, dated 2004).

Tests used:
[1] = tested on: corn; assay: Test B pre/postemergence corn; format: in vivo, Zea mays
Method in brief: (§1)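 Response is a visual 0-to-10 score relative to untreated plants, where 0 means no effect and 10 means complete control, taken twelve to sixteen days after application. Treatments went onto soil at planting and onto foliage of 1- to 4-leaf plants, using a surfactant-containing non-phytotoxic solvent.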

[2] = tested on: soybean; assay: Test B pre/postemergence soybean; format: in vivo, Glycine max
Method in brief: as §1

[3] = tested on: duck salad; assay: Test B flood test duck salad; format: in vivo, Heteranthera limosa
Method in brief: (§2)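 Read-out is a visual response score from 0 (no effect) to 10 (complete control), assigned by comparison with untreated controls. Treatment was applied at the 2-leaf stage, and plants stayed in the greenhouse for twelve to sixteen days before scoring.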

[4] = tested on: blackgrass; assay: Test B pre/postemergence blackgrass; format: in vivo, Alopecurus myosuroides
Method in brief: as §1

[5] = tested on: morningglory; assay: Test B pre/postemergence morningglory; format: in vivo, Ipomoea hederacea
Method in brief: as §1

[6] = tested on: smallflower flatsedge; assay: Test B flood test smallflower flatsedge; format: in vivo, Cyperus difformis
Method in brief: as §2

[7] = tested on: purple nutsedge; assay: Test B pre/postemergence purple nutsedge; format: in vivo, Cyperus rotundus
Method in brief: as §1

[8] = tested on: cocklebur; assay: Test B pre/postemergence cocklebur; format: in vivo, Xanthium strumarium
Method in brief: as §1

[9] = tested on: surinam grass; assay: Test B pre/postemergence surinam grass; format: in vivo, Brachiaria decumbens
Method in brief: as §1

[10] = tested on: wild oat; assay: Test B pre/postemergence wild oat; format: in vivo, Avena fatua
Method in brief: as §1

[11] = tested on: velvetleaf; assay: Test B pre/postemergence velvetleaf; format: in vivo, Abutilon theophrasti
Method in brief: as §1

[12] = tested on: rice; assay: Test B flood test rice; format: in vivo, Oryza sativa
Method in brief: as §2

[13] = tested on: bamyardgrass; assay: Test B flood test barnyardgrass; format: in vivo, Echinochloa crus-galli
Method in brief: as §2

[14] = tested on: sugar beet; assay: Test B pre/postemergence sugar beet; format: in vivo, Beta vulgaris
Method in brief: as §1

[15] = tested on: wheat; assay: Test B pre/postemergence wheat; format: in vivo, Triticum aestivum
Method in brief: as §1

[16] = tested on: crabgrass; assay: Test B pre/postemergence crabgrass; format: in vivo, Digitaria sanguinalis
Method in brief: as §1

[17] = tested on: rape; assay: Test B pre/postemergence rape; format: in vivo, Brassica napus
Method in brief: as §1

[18] = tested on: giant foxtail; assay: Test B pre/postemergence giant foxtail; format: in vivo, Setaria faberii
Method in brief: as §1

[19] = tested on: pigweed; assay: Test B pre/postemergence pigweed; format: in vivo, Amaranthus retroflexus
Method in brief: as §1

[20] = Postemergence, Rate 62 g/ha, scale 0 to 10, 0 is no effect, 10 is complete control
[21] = Postemergence, Rate 125 g/ha, scale of 0 to 10 where 0 is no effect and 10 is complete control
[22] = Postemergence, Rate 250 g/ha, scale of 0 to 10, 0 is no effect, 10 is complete control
[23] = Postemergence, Rate 500 g/ha, scale of 0 to 10 where 0 is no effect and 10 is complete control
[24] = Preemergence, Rate 62 g/ha, scale 0 to 10 (0 no effect, 10 complete control)
[25] = Preemergence, Rate 125 g/ha, scale of 0 to 10 where 0 is no effect and 10 is complete control
[26] = Preemergence, Rate 500 g/ha, scale of 0 to 10 where 0 is no effect and 10 is complete control
[27] = Rate 62 g/ha, flood test species, Pre-emergence, visual evaluation after twelve to sixteen days
[28] = Rate 125 g/ha, under heading Pre-emergence, flood test species, visual evaluation after twelve to sixteen days
[29] = Rate 250 g/ha, Pre-emergence (flood test species), scale 0 to 10, 0 is no effect, 10 is complete control
[30] = Rate 500 g/ha, Pre-emergence section of Table B, 0 to 10 scale (0 no effect, 10 complete control)

CC(C)N(C(=O)n1oc(=O)n(CC(C)[N+](=O)[O-])c1=O)c1ccc(F)cc1F (centres unmarked) [Compound 603]
Plant response rating, Corn [1, 20]: 0
Plant response rating, Corn [1, 21]: 0
Corn plant response rating [1, 22]: 0
Plant response rating, Corn [1, 23]: 0
Corn plant response rating [1, 24]: 0
Corn plant response rating [1, 25]: 0
Corn plant response rating (0 to 10 scale) ([1]; Preemergence, Rate 250 g/ha): 0
Plant response rating, Corn [1, 26]: 0
Plant response rating, Soybean [2, 20]: 0
Plant response rating, Soybean [2, 21]: 0
Soybean plant response rating [2, 22]: 2
Plant response rating, Soybean [2, 23]: 2
Soybean plant response rating [2, 24]: 0
Soybean plant response rating [2, 25]: 0
Plant response rating, Soybean [2, 26]: 0
Plant response rating, Ducksalad (0 to 10 scale, 0 is no effect, 10 is complete control) [3, 27]: 0
Ducksalad plant response rating (0 to 10 scale, 0 is no effect, 10 is complete control) [3, 28]: 0
Ducksalad plant response rating [3, 29]: 0
Ducksalad plant response rating [3, 30]: 0
Plant response rating, Blackgrass [4, 20]: 0
Plant response rating, Blackgrass [4, 21]: 0
Blackgrass plant response rating [4, 22]: 0
Plant response rating, Blackgrass [4, 23]: 0
Blackgrass plant response rating [4, 24]: 0
Blackgrass plant response rating [4, 25]: 0
Blackgrass plant response rating (0 to 10 scale) ([4]; Preemergence, Rate 250 g/ha): 0
Blackgrass plant response rating [4, 26]: 0
Plant response rating, Morningglory [5, 20]: 0
Plant response rating, Morningglory [5, 21]: 0
Morningglory plant response rating [5, 22]: 2
Plant response rating, Morningglory [5, 23]: 3
Morningglory plant response rating [5, 24]: 0
Morningglory plant response rating [5, 25]: 0
Plant response rating, Morningglory [5, 26]: 0
Plant response rating, S. Flatsedge (0 to 10 scale, 0 is no effect, 10 is complete control) [6, 27]: 0
S. Flatsedge plant response rating (0 to 10 scale, 0 is no effect, 10 is complete control) [6, 28]: 0
S. Flatsedge plant response rating [6, 29]: 0
S. Flatsedge plant response rating [6, 30]: 0
Plant response rating, Nutsedge [7, 20]: 0
Plant response rating, Nutsedge [7, 21]: 0
Nutsedge plant response rating [7, 22]: 0
Plant response rating, Nutsedge [7, 23]: 0
Nutsedge plant response rating [7, 24]: 0
Nutsedge plant response rating [7, 25]: 0
Plant response rating, Nutsedge [7, 26]: 0
Plant response rating, Cocklebur [8, 20]: 0
Plant response rating, Cocklebur [8, 21]: 0
Cocklebur plant response rating [8, 22]: 0
Plant response rating, Cocklebur [8, 23]: 0
Cocklebur plant response rating [8, 24]: 0
Cocklebur plant response rating [8, 25]: 0
Cocklebur plant response rating (0 to 10 scale) ([8]; Preemergence, Rate 250 g/ha): 0
Plant response rating, Cocklebur [8, 26]: 0
Plant response rating, B. signalgrass [9, 20]: 0
Plant response rating, B. signalgrass [9, 21]: 0
B. signalgrass plant response rating [9, 22]: 0
Plant response rating, B. signalgrass [9, 23]: 0
B. signalgrass plant response rating [9, 24]: 0
B. signalgrass plant response rating [9, 25]: 0
B. signalgrass plant response rating (0 to 10 scale, 0 is no effect, 10 is complete control) ([9]; Preemergence, Rate 250 g/ha): 0
B. signalgrass plant response rating [9, 26]: 0
Plant response rating, Wild oats [10, 20]: 0
Plant response rating, Wild oats [10, 21]: 0
Wild oats plant response rating [10, 22]: 0
Plant response rating, Wild oats [10, 23]: 0
Wild oats plant response rating [10, 24]: 0
Wild oats plant response rating [10, 25]: 0
Plant response rating, Wild oats [10, 26]: 0
Plant response rating, Velvetleaf [11, 20]: 0
Plant response rating, Velvetleaf [11, 21]: 0
Velvetleaf plant response rating [11, 22]: 0
Plant response rating, Velvetleaf [11, 23]: 2
Velvetleaf plant response rating [11, 24]: 0
Velvetleaf plant response rating [11, 25]: 0
Plant response rating, Velvetleaf [11, 26]: 0
Plant response rating, Rice (0 to 10 scale, 0 is no effect, 10 is complete control) [12, 27]: 0
Rice plant response rating (0 to 10 scale, 0 is no effect, 10 is complete control) [12, 28]: 0
Rice plant response rating [12, 29]: 0
Rice plant response rating [12, 30]: 0
Plant response rating, Barnyardgrass (0 to 10 scale, 0 is no effect, 10 is complete control) [13, 27]: 0
Barnyardgrass plant response rating (0 to 10 scale, 0 is no effect, 10 is complete control) [13, 28]: 0
Barnyardgrass plant response rating [13, 29]: 0
Barnyardgrass plant response rating [13, 30]: 0
Plant response rating, Sugarbeets [14, 20]: 0
Plant response rating, Sugarbeets [14, 21]: 0
Sugarbeets plant response rating [14, 22]: 0
Plant response rating, Sugarbeets [14, 23]: 0
Sugarbeets plant response rating [14, 24]: 0
Sugarbeets plant response rating [14, 25]: 0
Plant response rating, Sugarbeets [14, 26]: 0
Plant response rating, Wheat [15, 20]: 0
Plant response rating, Wheat [15, 21]: 0
Wheat plant response rating [15, 22]: 0
Plant response rating, Wheat [15, 23]: 0
Wheat plant response rating [15, 24]: 0
Wheat plant response rating [15, 25]: 0
Plant response rating, Wheat [15, 26]: 0
Plant response rating, Crabgrass [16, 20]: 0
Plant response rating, Crabgrass [16, 21]: 0
Crabgrass plant response rating [16, 22]: 0
Plant response rating, Crabgrass [16, 23]: 0
Crabgrass plant response rating [16, 24]: 0
Crabgrass plant response rating [16, 25]: 0
Plant response rating, Crabgrass [16, 26]: 0
Plant response rating, Rape [17, 20]: 0
Plant response rating, Rape [17, 21]: 0
Rape plant response rating [17, 22]: 0
Plant response rating, Rape [17, 23]: 0
Rape plant response rating [17, 24]: 0
Rape plant response rating [17, 25]: 0
Plant response rating, Rape [17, 26]: 0
Plant response rating, Giant foxtail [18, 20]: 0
Plant response rating, Giant foxtail [18, 21]: 0
Giant foxtail plant response rating [18, 22]: 0
Plant response rating, Giant foxtail [18, 23]: 0
Giant foxtail plant response rating [18, 24]: 0
Giant foxtail plant response rating [18, 25]: 0
Plant response rating, Giant foxtail [18, 26]: 0
Plant response rating, Redroot pigweed [19, 20]: 0
Plant response rating, Redroot pigweed [19, 21]: 0
Redroot pigweed plant response rating [19, 22]: 0
Plant response rating, Redroot pigweed [19, 23]: 0
Redroot pigweed plant response rating [19, 24]: 0
Redroot pigweed plant response rating [19, 25]: 0
Plant response rating, Redroot pigweed [19, 26]: 0
